{"source": "patent US20250129102A1", "about": "“CRYSTAL FORM OF PYRIMIDINE HETEROCYCLIC COMPOUND AND PREPARATION METHOD THEREFOR” (D3 Bio (Wuxi) Co., Ltd., priority 2021, published 2025)", "key": {"[1]": {"experiment": "Stability in whole blood, SD rats", "format": "in vitro ADME", "conditions": "5 μM, 37° C.", "procedure": "(§1) Stabilities of the assay compound in whole blood of CD-1 mice, SD rats, beagle dogs and cynomolgus monkeys were assayed, respectively. On the day of the assay or the day before the assay, fresh whole blood from CD-1 mice, SD rats, beagle dogs, and cynomolgus monkeys was collected using anticoagulant EDTA-K2. Prior to the start of the assay, the whole blood was mixed with PBS in 1:1 (v: v) and the mixture was preheated in a 37° C. water bath for 10 to 20 minutes. 96-well incubation plates were prepared and named T0, T30, T60, […], respectively. In the corresponding incubation plates, including T0, T30, T60 and […] incubation plates, 2 μL of working solutions of the compound or the control compound were mixed with 98 μL of blank whole blood of mice, rats, canines, monkeys and human in duplicate. All samples were incubated in a 37° C. water bath. The final incubation concentration of the compound was 5 μM and the final incubation concentration of the control compound was 2 μM. At the end of incubation for each time point, the corresponding incubation plate was removed and 100 μL of ultrapure water was immediately added to the corresponding sample wells, and mixed well. 800 μL of a solution of 200 ng/mL tolbutamide and labetalol in acetonitrile was added to precipitate the protein. […] 150 μL of supernatant was taken out and analyzed by LC/MS/MS."}, "[2]": {"experiment": "Stability in whole blood, beagle dogs", "format": "in vitro ADME", "conditions": "5 μM, 37° C.", "procedure": "as §1"}, "[3]": {"experiment": "Protein binding rate in plasma by equilibrium dialysis, human", "format": "in vitro ADME", "conditions": "2 μM, equilibrium dialysis 4 hours", "procedure": "(§2) Protein binding rate of the assay compound in plasma of CD-1 mice, SD rats, beagle dogs, cynomolgus monkeys and human was determined by equilibrium dialysis. Plasma samples with a compound concentration of 2 μM were prepared using plasma of the above five species, placed in a 96-well equilibrium dialysis device, and dialyzed with phosphate buffer solution at 37±1° C. for 4 hours. Warfarin was used as the control compound in this assay. The concentrations of the assay compound in plasma and dialysis buffer were determined by LC-MS/MS method."}, "[4]": {"experiment": "Protein binding rate in plasma by equilibrium dialysis, SD rats", "format": "in vitro ADME", "procedure": "(§3) Protein binding rate of the assay compound in plasma of CD-1 mice, SD rats, beagle dogs, cynomolgus monkeys and human was determined by equilibrium dialysis.\nas §2, with “Plasma” for “Protein binding rate of the assay compound in plasma of CD-1 mice, SD rats, beagle dogs, cynomolgus monkeys and human was determined by equilibrium dialysis. Plasma”"}, "[5]": {"experiment": "Protein binding rate in plasma by equilibrium dialysis, CD-1 mice", "format": "in vitro ADME", "procedure": "as §3\nas §2, with “Plasma” for “Protein binding rate of the assay compound in plasma of CD-1 mice, SD rats, beagle dogs, cynomolgus monkeys and human was determined by equilibrium dialysis. Plasma”"}, "[6]": {"experiment": "Metabolic stability in hepatocytes, cynomolgus monkeys", "format": "in vitro ADME", "conditions": "cynomolgus monkey, cryopreserved hepatocytes", "procedure": "(§4) Metabolic stabilities of assay compound in hepatocytes of CD-1 mice, SD rats, beagle dogs, cynomolgus monkeys, and human were assayed, respectively.\n(§5) Several 96-well sample precipitation plates were prepared and named T0, T15, T30, T60, T90, T120, T0-MC, T120-MC and blank substrates, respectively. The recovery medium and incubation medium were taken out in advance and placed in a 37° C. water bath for pre-heating. Cryopreserved hepatocytes were removed from the liquid nitrogen tank and immediately immersed in a 37° C. water bath (approximately 90 seconds). After the cryopreserved hepatocytes had thawed and loosened, they were poured into a centrifuge tube containing 40 mL of recovery medium, and the tube was gently inverted to allow the cells to be resuspended in the recovery medium. The cells were centrifuged at 100×g at room temperature for 5 min, and the supernatant was removed. The hepatocytes were resuspended in an appropriate volume of incubation medium, and the cell viability was calculated by Trypan Blue staining method. 198 μL of hepatocyte suspension (0.51×10^6 cells/mL) was added to the preheated incubation plate. For the culture medium control group, 198 μL of hepatocyte-free incubation medium was added to T0-MC and T120-MC incubation plate. All incubation plates were pre-incubated in a 37° C. incubator for 10 minutes. Then 2 μL of working solutions of the assay sample and the control compound were added, respectively, and the mixture was mixed well. The incubation plate was immediately put into the shaker in the incubator, and the reaction was initiated while starting the timer. For each time point of each compound, 2 duplicate samples were prepared. The incubation conditions were 37° C., saturated humidity, and 5% CO2. […] All samples were mixed well and analyzed by LC/MS/MS."}, "[7]": {"experiment": "Metabolic stability in hepatocytes, SD rats", "format": "in vitro ADME", "conditions": "rat, cryopreserved hepatocytes", "procedure": "as §4, §5"}, "[8]": {"experiment": "Stability in whole blood, CD-1 mice", "format": "in vitro ADME", "conditions": "CD-1 mice whole blood, 5 μM, 37° C.", "procedure": "as §1"}, "[9]": {"experiment": "Pharmacokinetics by oral administration and intravenous injection in CD mice", "format": "in vivo", "conditions": "for Area under the plasma concentration-time curve, AUCu: AUC0-last × PPB(Unbound %); for Vd: CD, iv, 2 mg/kg; for AUC(0-t): read-out: Area under the plasma concentration-time curve, AUC0-last", "procedure": "The mixture was vortexed and sonicated to prepare a 1 mg/mL clear solution, which was filtered through a microporous membrane for later use. Male CD mice aged 7 to 10 weeks were selected, and administered candidate compound solutions intravenously or orally. Whole blood was collected for a certain period of time, and prepared to obtain plasma. Drug concentration was analyzed by LC-MS/MS method, and pharmacokinetic parameters were calculated by Phoenix WinNonlin software (Pharsight, USA)."}}, "note": "Read-outs that look alike come from different tables or passages of the source.", "data": [{"compound": "C=C(F)C(=O)N1CCN(c2nc(OC[C@@]34CCCN3C[C@H](F)C4)nc3c2CO[C@H](c2c(F)c(N)cc(C)c2C(F)(F)F)C3)C[C@@H]1CC#N", "note": "[Compound of formula (I)]", "values": [{"measurement": "Detection of assay compound content within 240 min", "setting": "[1]", "value": 115, "unit": "%"}, {"measurement": "Detection of assay compound content within 240 min", "setting": "[2]", "value": 102, "unit": "%"}, {"measurement": "Protein unbound rate (%)", "setting": "[3]", "value": 4.8, "unit": "%"}, {"measurement": "Protein unbound rate (%)", "setting": "[4]; SD rats plasma, 2 μM, equilibrium dialysis 4 hours", "value": 4.8, "unit": "%"}, {"measurement": "fraction unbound at 4 h, 2 μM", "setting": "[4]; plasma, value used in the SD rat PK table, read-out: Plasma protein unbound rate PPB (Unbound %)", "value": 0.048}, {"measurement": "fraction unbound at 4 h, 2 μM", "setting": "[5]; CD-1, plasma, value used in the CD mouse PK table, read-out: Plasma protein unbound rate PPB (Unbound %)", "value": 0.12}, {"measurement": "Protein unbound rate (%)", "setting": "[5]; CD-1 mice plasma, 2 μM, equilibrium dialysis 4 hours", "value": 1.5, "unit": "%"}, {"measurement": "half-life at 1 μM", "setting": "[6]", "value": 27, "unit": "min"}, {"measurement": "hepatocyte CLint at 1 μM", "setting": "[6]; read-out: CLint(hep)", "value": 51.3, "unit": "µL/min/1e6 cells"}, {"measurement": "CLint scaled at 1 μM", "setting": "[6]; read-out: CLint(liver)", "value": 185, "unit": "mL/min/kg"}, {"measurement": "half-life at 1 μM", "setting": "[7]", "value": 20.6, "unit": "min"}, {"measurement": "hepatocyte CLint at 1 μM", "setting": "[7]; read-out: CLint(hep)", "value": 67.4, "unit": "µL/min/1e6 cells"}, {"measurement": "CLint scaled at 1 μM", "setting": "[7]; read-out: CLint(liver)", "value": 315, "unit": "mL/min/kg"}, {"measurement": "Detection of assay compound content within 240 min", "setting": "[8]", "value": 117, "unit": "%"}, {"measurement": "Area under the plasma concentration-time curve, AUCu", "setting": "[9]; intravenous injection, 2.0 mg/kg", "value": 0.1556, "unit": "µM·h"}, {"measurement": "Vd", "setting": "[9]; male, mouse, plasma, intravenous injection, 2.0 mg/kg, Vdss/PPB(Unbound %), read-out: Apparent volume of distribution, Vdss, u", "value": 32.3, "unit": "L/kg"}, {"measurement": "Vd", "setting": "[9]; male, mouse, plasma, intravenous injection, 2.0 mg/kg, read-out: Apparent volume of distribution, Vdss", "value": 3.9, "unit": "L/kg"}, {"measurement": "AUC(0-t)", "setting": "[9]; male, mouse, plasma, intravenous injection, 2.0 mg/kg", "value": 1.3, "unit": "µM·h"}, {"measurement": "clearance", "setting": "[9]; male, mouse, plasma, intravenous injection, 2.0 mg/kg, read-out: Clearance rate, CL", "value": 40.6, "unit": "mL/min/kg"}, {"measurement": "half-life", "setting": "[9]; male, mouse, plasma, intravenous injection, 2.0 mg/kg, read-out: Half-life time, T1/2 (converted)", "value": 102, "unit": "min"}, {"measurement": "AUC(0-t)", "setting": "[9]; male, mouse, plasma, oral administration, 10.3 mg/kg", "value": 1.42, "unit": "µM·h"}, {"measurement": "bioavailability", "setting": "[9]; male, mouse, plasma, oral administration, 10.3 mg/kg, read-out: Bioavailability F (%)", "value": 21.9, "unit": "%"}, {"measurement": "Cmax", "setting": "[9]; male, mouse, plasma, oral administration, 10.3 mg/kg, read-out: Peak concentration, Cmax", "value": 431, "unit": "nM"}, {"measurement": "Tmax", "setting": "[9]; male, mouse, plasma, oral administration, 10.3 mg/kg, read-out: Time-to-peak, Tmax", "value": 60, "unit": "min"}, {"measurement": "Area under the plasma concentration-time curve, AUCu", "setting": "[9]; oral administration, 10.3 mg/kg", "value": 0.1706, "unit": "µM·h"}, {"measurement": "Peak concentration, Cmax, u", "setting": "[9]; oral administration, 10.3 mg/kg, Cmax × PPB(Unbound %)", "value": 51.7, "unit": "nM"}]}]}
